# From patent US20090036417A1, “COCHLEATES WITHOUT METAL CATIONS AS BRIDGING AGENTS” (priority 2002, published 2009)
# Experiments:
# [1] = Loading capacity of cochleates for molecules as bridging agents (UV absorption / HPLC); assay type: physicochemical; conditions: with the lipid amount of column Lipids (mg): 5 mg for TAPS, 38.11 mg for Tobramycine
# Description: Loading capacities of the new cochelates and nano-cochleates for TAS and tobramycin were determined. For TAS, known amounts of cochleates or nano-cochleates were first dissolved with chloroform, then added with water (pH=2), followed by strong shaking. The water phase was separated hereafter, and the same procedure was repeated two more times. The water phases collected three times were combined. The concentration of the extract was determined by UV absorption at 380 nm. […] The loading amount was determined based on the decreased concentration in the supernatant after cochleate formation. For mobile phase, 2.0 g of tris (hydroxymethyl) aminomethan was first dissolved with 800 ml of water, followed by addition of 20 ml of 1N H2SO4 and acetanitrile to a total volume of 2000 ml. For detectability, a solution of 2,4-dinitrofluourobene (10 mg/ml in alcohol) was prepared within 5 days prior to use and refrigerated. A water solution of tris (hydroxymethyl) aminomethane (15 mg/ml) was also prepared as a stock solution. Within 4 hours of analysis, this stock solution, 40 ml, was diluted with dimethyl sulfoxide (DMSO) to 200 ml. […] For the supernatant (the sample to be measured), 1 ml of 5.5 mg/ml of tobramycin solution was added into a liposome suspension with a lipid-to-drug ratio of 1:5. […]
# E. Coli cell line, DH5α = experiment: Antibiotic activity of tobramycin in solution, cochleates and nano-cochleates (colony counting); assay type: cell-based; conditions: 0.5 μg/ml, 37° C., 24 hrs
# Description: FIG. 9. Antibiotic activity of tobramycin formulated in solution, cochleates and nano-cochleates. The drug of various doses were added to E. Coli prior to incubation at 37° C., followed by counting of the colonies. Tobramycin was selected as a model drug to examine the capability of cochelates and nano-cochleates to deliver hydrophilic drugs across cell membranes because the antibiotic function of tobramycin relies on its binding to ribosomes inside of cells. In other words, tobramycin's antibiotic activity reflects internalization of the drug into the cells. For this purpose, tobramycin-loaded cochleates and nano-cochleates prepared as in Example 2 were incubated with E. Coli at various doses. As a control, a tobramycin solution was also incubated with E. Coli under identical conditions. Experimentally, one drop of E. Coli cell line, DH5α, was added to 2 ml LB Broth solution and incubated at 37° C. for 24 hrs to prepare 1:10 DH5α culture solution. Then, 5 ul of the DH5α culture solution was diluted to 2 ml and tobramycin was added in the form of cochleates and nano-cochleates at the final concentrations of 0, 0.5, 1.0, 2.5, and 5.0 μg/ml, respectively. The tobramycin-added cell cultures were incubated at 37° C., with shaking at 200 rpm, for 24 hrs. […]
structure (smiles),measurement,setting,value
"NC[C@H]1O[C@H](O[C@H]2[C@H](O)[C@@H](O[C@H]3O[C@H](CO)[C@@H](O)[C@H](N)[C@H]3O)[C@H](N)C[C@@H]2N)[C@H](N)C[C@@H]1O [Tobramycine, tobramycin]",Drug (mg) loaded in cochleates,[1],5.5 mg
same,antibiotic activity of drug solution relative to large cochleates,"E. Coli cell line, DH5α",75 times
same,antibiotic activity of drug solution relative to nano-cochleates,"E. Coli cell line, DH5α",slightly higher
